Biological target: T1, Histamin-H2-Rezeptoren (Cavia porcellus, UniProt P47747)
T1 construct: in vitro am isolierten rechten Vorhof des Meerschweinchens; from tissue; host or cells: isolated right atrium of the guinea pig
Assay: Determination of pA2 values in vitro on the isolated right atrium of the guinea pig (H2-antagonistic activity)
Assay type: cell-based, Meerschweinchen
Conditions: read-out: pA2-Werte (converted)
From the text: Eine anerkannte Methode zur Bestimmung H2-antagonistischer Wirksamkeit ist die Ermittlung der pA2-Werte in vitro am isolierten rechten Vorhof des Meerschweinchens.

T1 sequence (P47747 whole entry): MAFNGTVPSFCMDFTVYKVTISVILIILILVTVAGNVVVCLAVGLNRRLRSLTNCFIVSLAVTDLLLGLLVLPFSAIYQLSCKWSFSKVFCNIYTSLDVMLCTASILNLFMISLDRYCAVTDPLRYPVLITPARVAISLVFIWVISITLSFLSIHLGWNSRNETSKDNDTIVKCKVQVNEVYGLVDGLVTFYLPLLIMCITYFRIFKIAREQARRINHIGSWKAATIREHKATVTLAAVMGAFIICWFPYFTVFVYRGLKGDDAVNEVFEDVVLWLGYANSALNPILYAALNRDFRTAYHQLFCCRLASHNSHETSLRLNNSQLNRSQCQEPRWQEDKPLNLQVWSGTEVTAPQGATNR

## Cc1ccc(SNc2nc(NCCCOc3cccc(CN4CCCCC4)c3)n(C)n2)cc1 [Beispiel 1, 1-Methyl-5-[3-[3-(1-piperidinylmethyl)phenoxy]propylamino]-3-(4-methyl-benzolsulfenamido)-1H-1,2,4-triazol]
  Kb: 1.58 nM

## CNC(=C[N+](=O)[O-])NCCSCc1ccc(CN(C)C)o1 [Ranitidin]
  Kb: 155 nM

— patent EP0141119A2, “Sulfenamide derivatives, process for their preparation, and medicaments containing these compounds” (LUDWIG HEUMANN & CO GMBH, priority 1983, dated 1985)
